Reference: patent US20230095701A1, “Use of Albiflorin in Treatment of Coronavirus Pneumonia” (priority 2020, published 2023)

What was measured:
[1] = tested on: IL-6; experiment: IL-6 content in plasma of acute stress model mice (ELISA); assay type: in vivo, ICR mice
[2] = tested on: erythropoietin EPO; experiment: Hypoxia tolerance experiment; assay type: in vivo; conditions: hypoxic state of the body
[3] = tested on: IDO1; experiment: IDO1 in hippocampus of chronic stress rats, Western Blot; parameters: secretion of IDO1 in the hippocampus (in words): dose or concentration left out as unconfirmed; conditions: 7 days; for IDO1: hippocampus of chronic stress rats, blank control 1.0, model 1.0
[4] = tested on: SphK1; experiment: SphK1 in hippocampus of chronic stress rats, Western Blot; parameters: SphK1 in the hippocampus (in words): dose or concentration left out as unconfirmed; conditions: for SphK1: hippocampus of chronic stress rats, blank control 1.0, model 1.1
[5] = tested on: SphK2; experiment: SphK2 in hippocampus of chronic stress rats, Western Blot; parameters: SphK2 in the hippocampus (in words): dose or concentration left out as unconfirmed; conditions: for SphK2: hippocampus of chronic stress rats, blank control 1.0, model 1.8
[6] = tested on: cPLA2; experiment: cPLA2 in hippocampus of chronic unpredictable mild stress (CUMS) rats; conditions: 7 days, 7 mg/kg, FIG. 10
[7] = tested on: intestinal flora metabolism; experiment: Targeted metabolomics (LC-MS/MS, VIP analysis) of feces of chronic stress (CUMS) depression model rats; conditions: 7 mg/kg/d intragastric, 7 days, compared with the depression group
Method: 32 healthy male SD rats, weighing 180-220 g, are randomly divided into a blank control group (Control), a model group (CUMS), a fluoxetine group (FLX), and an albiflorin group (Albiflorin), with 8 in each group.
Except for the blank control group, all groups receive randomly designed stress stimulation, and are then administrated intragastrically with fluoxetine (10 mg/kg/d) and albiflorin (7 mg/kg/d) for 7 consecutive days in terms of 1.0 mL/100 g body weight after 29 days of stress stimulation, while the corresponding stress stimulation is continued in the course of administration. All drugs are prepared into solutions or suspensions with physiological saline before use, and dissolved by ultrasonic waves.
After 7 days of administration, the administration ends, and 24 hours later, behavioral tests are performed. After the tests, the animals are anesthetized and sacrificed. The plasma, hippocampal tissues, and feces of the animals are collected separately, and preserved for later use by using appropriate methods according to the experimental requirements. […]
The metabolite extract is taken, dissolved in 100 μl mobile phase, and the main metabolites in the sample are determined by LC-MS/MS (Shimadzu LC-20AD-Qtrap 5500 tandem mass spectrometer (SCIEX, USA)). […]
The obtained chromatographic peak information (Wiff file) is imported into Multiquant 3.0 (SCIEX, USA), and the obtained chromatographic peaks are area-integrated and checked manually. […] The analyzed data is imported into Metaboanalyst for multivariate analysis (PLS-DA, OPLS-DA and VIP analysis), metabolic pathways analysis and correlation analysis.

[8] = tested on: intestinal flora; experiment: Intestinal flora function and structure in CUMS rats (metabolomics, 16sDNA high-throughput metagenomic sequencing); conditions: 7 days
[9] = compared with the depression group, VIP analysis, FIG. 15

C[C@]12C[C@@H](O)[C@@H]3C[C@@]1(O[C@@H]1O[C@H](CO)[C@@H](O)[C@H](O)[C@H]1O)[C@@]3(COC(=O)c1ccccc1)C(=O)O2 [Albiflorin]
secretion of IL-6 ([1]; 8 mg/kg intragastric, P<0.01, FIG. 8): most significant inhibitory effect | secretion of IL-6 ([1]; low dose range, intragastric, 2 days, FIG. 8): certain inhibitory effect | secretion of IL-6 ([1]; with the increase of the administration dose (up to 128 mg/kg), FIG. 8): secretion of IL-6 is promoted obviously | level of erythropoietin EPO [2]: increase | secretion of IDO1 in the hippocampus (in words) ([3]; CUMS rats, P<0.01): significantly inhibited | IDO1 ([3]; 7 mg/kg): 0.8 ± 0.007 | IDO1 ([3]; 14 mg/kg): 0.7 ± 0.007 | SphK1 in the hippocampus (in words) ([4]; CUMS rats, 7 days, P<0.01): significantly decreased | SphK1 ([4]; 3.5 mg/kg, 7 days): 1.2 ± 0.009 | SphK1 ([4]; 7 mg/kg, 7 days): 0.7 ± 0.004 | SphK1 ([4]; 14 mg/kg, 7 days): 0.5 ± 0.001 | SphK2 in the hippocampus (in words) ([5]; CUMS rats, 7 days, P<0.01): significantly decreased | SphK2 ([5]; 3.5 mg/kg, 7 days): 2.2 ± 0.016 | SphK2 ([5]; 7 mg/kg, 7 days): 1.6 ± 0.010 | SphK2 ([5]; 14 mg/kg, 7 days): 2.1 ± 0.015 | increase of cPLA2 in the hippocampus [6]: inhibit the increase of cPLA2 | overall metabolism of intestinal flora ([7]; CUMS rats, VIP analysis, FIG. 6): significantly improved | amino acid and vitamin content ([7]; feces of CUMS rats): increase | bile acid content ([7]; feces of CUMS rats): increase | flora structure compared with the blank control group (cluster analysis) ([8]; 7 mg/kg/d, P>0.05, FIG. 14): without any statistical difference | content of beneficial bacteria Firmicutes, especially lactic acid bacteria ([8]; 7 mg/kg/d, compared with the stress rat model group, FIG. 14): significant increase | content of bile acids and content of amino acids and vitamins [8, 9]: increase | overall metabolism of intestinal flora [8, 9]: significantly improved

C[C@@]12C[C@@]3(O)O[C@@H](O1)[C@]1(COC(=O)c4ccccc4)[C@H]3C[C@@]12O[C@@H]1O[C@H](CO)[C@@H](O)[C@H](O)[C@H]1O [Paeoniflorin, reference compound]
secretion of IL-6 in the blood ([1]; 4 mg/kg and 8 mg/kg intragastric, P<0.05, FIG. 7): most significant inhibitory effect | secretion of IL-6 in the blood ([1]; dose range 4, 8, 16, 32, 64 and 128 mg/kg intragastric, 2 days, FIG. 7): certain inhibitory effect

CNCCC(Oc1ccc(C(F)(F)F)cc1)c1ccccc1 (stereo not drawn) [Fluoxetine, fluoxetine, reference compound]
SphK1 ([4]; fluoxetine group): 1.5 ± 0.009 | SphK2 ([5]; fluoxetine group): 2.1 ± 0.016
